Measured values reported in patent US20230228764A1, “METHOD FOR THE DIAGNOSIS AND TREATMENT OF ESSENTIAL PRIMARY HYPERTENSION” (Universiteit Maastricht, priority 2020, published 2023).
“Also recorded” adds a separate entry of the source.

How the values were obtained:
[1] = test system: femoral arteries of aged NOX5 KI mice; assay: Acetylcholine (Ach)-induced relaxation of isolated femoral arteries, wire myograph; conditions: for Reversal of impaired Ach-induced relaxation by antioxidant: femoral arteries of aged KI mice contracted with 10 μM phenylephrine, Ach 10 μM
Description: (§1) To test the effect of endothelial NOX5 on endothelium-dependent, NO-cGMP mediated relaxation, arterial segments were pre-contracted by either depolarization (K^+), α1-adrenergic activation (phenylephrine), or endothelin-1; vaso-relaxation was then induced by acetylcholine (Ach) the classical endothelium-derived relaxing factor stimulant. […] When comparing ours to previous studies, the Ach-induced relaxation of saphenous arteries of both mice groups seemed attenuated. There are two possible explanations for this discrepancy. First, we have used very old mice and other studies used young mice.
After mice were sacrificed, thoracic aortae, femoral and saphenous arteries were dissected free from perivascular adipose tissue and mounted in a wire myograph (DMT, Aarhus, DK). The organ chamber was filled with Krebs-Ringer bicarbonate-buffered salt solution (KRB) that was continuously aerated with 95% O2/5% CO2 and maintained at 37° C. Passive stretch procedure was performed to mimic the physiologically relevant internal lumen diameter as previously described. Arterial contractile and relaxing responses were recorded at lumen diameters corresponding to a distending pressure of 100 mmHg in thoracic aorta and femoral artery and at 90% of this diameter in the resistance-sized saphenous artery. […] The diameter tension relationships were constructed according to the law of Laplace for a cylindrical tube: P=T/R (with P for transmural pressure, T for wall tension and R for the lumen radius of the tube). Consequently, wall stiffness can be determined equally by recording 1) changes in tension in response to imposed changes in radius (wire myography) or 2) changes in radius in response to changes in transmural pressure (pressure myography). Here we used the former approach because it has a higher throughput than the latter. Stress-strain relationships and even better “incremental elastic (Young's) modulus” (which require additional recording of wall thickness) only come into play to discriminate between structural and material property contributions to changes in arterial stiffness. Part of the isolated thoracic aorta was studied in the absence and part in the continuous presence of 10 μM indomethacin to inhibit production of prostaglandins that can act as endothelium-derived vasoactive factors in this vessel. The vessels were tested for their contractile response to 40 mM K^+, concentration-response curves of phenylephrine (0.01 to 100 μM) and endothelin-1 (1-256 nM) followed by acetylcholine (Ach) (0.01 to 100 μM), PAPA/NO (0.01-10 μM) or Bay60-2770 (0.01-10 μM)-induced relaxations. The wall tension of the vessel segment was continuously recorded with LabChart Pro (AD Instruments, Oxford, UK).

[2] = test system: femoral arteries of aged WT and KI mice; assay: Endothelium-independent relaxations induced by apo-sGC activator, wire myograph; conditions: BAY 60-2770 0.01-10 μM
Description: (§2) To test which component of NO-cGMP signalling was most likely affected, we tested an uncoupling effect on endothelial NO synthase or an oxidative damage of the NO receptor, soluble guanylate cyclase yielding oxidized or heme-free apo-sGC [51, 52]. To test for sGC/apo-sGC, relaxing responses to the NO donor compound and sGC stimulator, PAPA/NO (0.01-10 μM), and to the aposGC activator, BAY 60-2770 (0.01-10 μM), were analyzed.
(§3) After mice were sacrificed, thoracic aortae, femoral and saphenous arteries were dissected free from perivascular adipose tissue and mounted in a wire myograph (DMT, Aarhus, DK). The organ chamber was filled with Krebs-Ringer bicarbonate-buffered salt solution (KRB) that was continuously aerated with 95% O2/5% CO2 and maintained at 37° C. […] Arterial contractile and relaxing responses were recorded at lumen diameters corresponding to a distending pressure of 100 mmHg in thoracic aorta and femoral artery and at 90% of this diameter in the resistance-sized saphenous artery. […] Consequently, wall stiffness can be determined equally by recording 1) changes in tension in response to imposed changes in radius (wire myography) or 2) changes in radius in response to changes in transmural pressure (pressure myography). […] The wall tension of the vessel segment was continuously recorded with LabChart Pro (AD Instruments, Oxford, UK).

[3] = test system: thoracic aorta of aged KI and WT mice; assay: Ach-induced relaxation of isolated thoracic aorta, wire myograph; conditions: thoracic aorta contracted with 258 nM endothelin-1, 100 μM L-NAME
Description: as §1
as §3, with “DK).” for “DK). The organ chamber was filled with Krebs-Ringer bicarbonate-buffered salt solution (KRB) that was continuously aerated with 95% O2/5% CO2 and maintained at 37° C.”

[4] = test system: femoral arteries of aged NOX5 KI mice; assay: Measurement of superoxide formation: DHE staining; conditions: pre-treatment with 500 μM L-NAME for 30 min at 37° C.
Description: Superoxide was measured in femoral arteries using the florescence dye dihydroethidium (DHE) (Thermo Scientific Technology, The Netherlands). Frozen femoral arteries cryo-sections were fixated in 4% paraformaldehyde (PFA) in PBS and then incubated with 2 μM DHE for 30 minutes at 37° C. After three washing steps with PBS, slices were incubated with DAPI (Sigma-Aldrich, The Netherlands) […] for 10 min. Sections were washed in PBS and then mounted using a Dako Fluorescence Mounting Medium ([…], Agilent Technologies). Immunofluorescent signals were viewed using a Leica DM13000 B fluorescence microscope. Some arteries were pre-treated with 500 μM L-NAME for 30 min at 37° C. before performing the DHE staining.

[5] = test system: saphenous arteries of aged KI and WT mice; assay: Ach-induced relaxation of isolated saphenous arteries, wire myograph; conditions: saphenous arteries contracted with endothelin-1; 100 μM L-NAME; both types of mice
Description: as §1
as §3, with “DK).” for “DK). The organ chamber was filled with Krebs-Ringer bicarbonate-buffered salt solution (KRB) that was continuously aerated with 95% O2/5% CO2 and maintained at 37° C.”

[6] = test system: thoracic aorta of the KI and WT mice; assay: Agonist-induced contractile responses, wire myograph; conditions: 10 μM indomethacin
Description: We next tested whether, alternatively, chronic changes in the underlying arterial smooth muscle layer could have contributed to the observed blood pressure and vasomotor phenotypes in aged NOX5 KI mice. Contractile responses to K^+ and the sensitivity and maximal responsiveness to phenylephrine and endothelin-1 did, however, not differ between KI and WT mice in all arterial segments (FIGS. 10 A-I).
as §3

hypertensive patients = conditions: cited from earlier work
[7] = test system: elevated blood pressure induced by NOS uncoupling; conditions: preclinical, refs [85, 86]; cited from earlier work
[8] = test system: femoral arteries, saphenous arteries and thoracic aortae of aged WT and KI mice; assay: Endothelium-independent relaxations induced by NO donor, wire myograph; conditions: PAPA/NO 0.01-10 μM, thoracic aortae with/without indomethacin
Description: as §2, §3

Structure (SMILES): CC1(C)CC(O)CC(C)(C)N1[O] [tempol]
- Reversal of impaired Ach-induced relaxation by antioxidant ([1]; 100 μM tempol): not reversed; also recorded: Neither 10 μM N-acetylcysteine nor 100 μM tempol, however, were effective

Structure (SMILES): O=C(O)CCCCN(CCc1cc(F)ccc1OCc1ccc(-c2ccc(C(F)(F)F)cc2)cc1)Cc1ccc(C(=O)O)cc1 [BAY 60-2770]
- Relaxing response, WT vs KI mice [2]: Neither the PAPA/NO (FIGS. 13 A-C) nor the BAY 60-2770 response (FIG. 11 D) differed
- Relaxing response, WT vs KI mice ([2]; listed as Bay60-2770): did not differ

Structure (SMILES): COC(=O)[C@@H](N)CCCNC(=N)N[N+](=O)[O-] [L-NAME]
- Reversal of the relaxing effects of Ach [3]: reversed
- Superoxide formation (DHE staining), increase in KI vs WT [4]: this increase was inhibited
- Reversal of the relaxing effects of Ach ([1]; femoral artery contracted with 258 nM endothelin-1, 100 μM L-NAME, KI and WT mice): reversed
- Reversal of the relaxing effects of Ach [5]: did not modify the relaxing effects of Ach

Structure (SMILES): COc1ccc2c(c1)c(CC(=O)O)c(C)n2C(=O)c1ccc(Cl)cc1 [indomethacin]
- Blunting of agonist-induced contractile responses, KI vs WT mice [6]: similar

Structure (SMILES): Nc1nc2ncc(CNc3ccc(C(=O)N[C@@H](CCC(=O)O)C(=O)O)cc3)nc2c(=O)[nH]1 [folic acid]
- Effect on elevated blood pressure (hypertensive patients; clinical, by improving endothelial function, refs [88, 89]): clinically effective to reduce elevated blood pressure
- Risk of cardiovascular and cerebrovascular events (hypertensive patients; hypertensive patients, alone or in combination with anti-hypertensives, refs [90-92]): reduces the risk of cardiovascular and cerebrovascular events

Structure (SMILES): CC(=O)N[C@@H](CS)C(=O)O [N-acetylcysteine]
- Reversal of impaired Ach-induced relaxation by antioxidant ([1]; 10 μM N-acetylcysteine): not reversed; also recorded: Neither 10 μM N-acetylcysteine nor 100 μM tempol, however, were effective

Structure (SMILES): C[C@H](O)C(=O)C1=Nc2c(nc(N)[nH]c2=O)NC1 [sepiapterin]
- Ach-induced relaxation after pre-treatment ([1]; femoral arteries of aged KI mice pre-contracted with phenylephrine, sepiapterin 100 μM): improved relaxation in KI; also recorded: greatly improved and became indistinguishable from those in WT
- Effect on elevated blood pressure [7]: lower elevated blood pressure

Structure (SMILES): CCCN(CCCN)/[N+]([O-])=N/O [PAPA/NO]
- Relaxing response, WT vs KI mice [8]: Neither the PAPA/NO (FIGS. 13 A-C) nor the BAY 60-2770 response (FIG. 11 D) differed
- Relaxing response, WT vs KI mice ([8]; listed as PAPA NO): did not differ
